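Compound exposure: 48 hours, 5 concentrations, 96-well plates. Here, GI50 denotes the concentration required for 50% inhibition of growth.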 The source made the active and inactive calls. Cut-off read from the data, not from the text of the source: active = GI50 up to about 1.1 µM and inactive = higher.
Tests used:
Test in all cases: NCI-60 cell line screen, 48 h
A549 = tested on: A549
SF-295 = tested on: SF-295
OVCAR-8 = tested on: OVCAR-8
UACC-62 = tested on: UACC-62
TK-10 = tested on: TK-10
OVCAR-4 = tested on: OVCAR-4
HCT-15 = tested on: HCT-15
A498 = tested on: A498
EKVX = tested on: EKVX
NCI-H23 = tested on: NCI-H23
KM-20L2 = tested on: KM-20L2
RPMI-8226 = tested on: RPMI-8226
IGROV-1 = tested on: IGROV-1
M19-MEL = tested on: M19-MEL
SK-MEL-2 = tested on: SK-MEL-2
ACHN = tested on: ACHN
HCC 2998 = tested on: HCC 2998
KM12 = tested on: KM12
CAKI-1 = tested on: CAKI-1
MOLT-4 = tested on: MOLT-4
M14 = tested on: M14
HT-29 = tested on: HT-29
DMS-273 = tested on: DMS-273
SK-MEL-5 = tested on: SK-MEL-5
RXF 631 = tested on: RXF 631
SR = tested on: SR
HCT-116 = tested on: HCT-116
786-0 = tested on: 786-0
HOP-62 = tested on: HOP-62
SNB-19 = tested on: SNB-19
HL-60 = tested on: HL-60
K562 = tested on: K562
XF498 = tested on: XF498
HOP-18 = tested on: HOP-18
UO-31 = tested on: UO-31
Malme-3M = tested on: Malme-3M
UACC-257 = tested on: UACC-257
SF-539 = tested on: SF-539
NCI-H522 = tested on: NCI-H522
DMS-114 = tested on: DMS-114
SNB-78 = tested on: SNB-78
RXF 393 = tested on: RXF 393
OVCAR-3 = tested on: OVCAR-3
SF-268 = tested on: SF-268
SK-MEL-28 = tested on: SK-MEL-28
NCI-H226 = tested on: NCI-H226
CCRF-CEM = tested on: CCRF-CEM
HOP-92 = tested on: HOP-92
OVCAR-5 = tested on: OVCAR-5
LXFL 529 = tested on: LXFL 529
SN12C = tested on: SN12C
COLO 205 = tested on: COLO 205
SNB-75 = tested on: SNB-75
SW-620 = tested on: SW-620
SK-OV-3 = tested on: SK-OV-3
LOX IMVI = tested on: LOX IMVI
DLD-1 = tested on: DLD-1
U-251 = tested on: U-251
NCI-H460 = tested on: NCI-H460

In the case of O=C(O)c1cc2ccc(Cl)cc2c(O)c1C1=CCCCC1, the GI50 (A549) is reported as 39.9 µM (inactive), the GI50 (SF-295) is reported as 32.3 µM (inactive) and the GI50 (OVCAR-8) is reported as 40.4 µM (inactive). The GI50 (UACC-62) was 24.5 µM (inactive), the GI50 (TK-10) was 63.8 µM (inactive) and the GI50 (OVCAR-4) was 23.2 µM (inactive). The GI50 (HCT-15) was 56.8 µM, the GI50 (A498) was 32.6 µM (inactive) and the GI50 (EKVX) was 43.4 µM (inactive). For the same compound, the GI50 (NCI-H23) was 26.4 µM (inactive), the GI50 (KM-20L2) was 51.6 µM (inactive) and the GI50 (RPMI-8226) was 34.6 µM (inactive). For the same compound, the GI50 (IGROV-1) was 50 µM (inactive), the GI50 (M19-MEL) was 35.8 µM (inactive) and the GI50 (SK-MEL-2) was 19.9 µM (inactive). For the same compound, the GI50 (ACHN) was 65 µM (inactive), the GI50 (HCC 2998) was > 100 µM (inactive) and the GI50 (KM12) was 42.4 µM (inactive). For the same compound, the GI50 (CAKI-1) was 33.2 µM (inactive), the GI50 (MOLT-4) was 36.4 µM (inactive) and the GI50 (M14) was 43.7 µM (inactive). For the same compound, the GI50 (HT-29) was 46.1 µM (inactive), the GI50 (DMS-273) was 20 µM (inactive) and the GI50 (SK-MEL-5) was 30.3 µM (inactive). For the same compound, the GI50 (RXF 631) was 32.1 µM (inactive), the GI50 (SR) was 57.4 µM (inactive) and the GI50 (HCT-116) was 37.1 µM (inactive). The GI50 (786-0) was 52.8 µM (inactive), the GI50 (HOP-62) was 33.7 µM (inactive) and the GI50 (SNB-19) was 39 µM (inactive). For the same compound, the GI50 (HL-60) was 30.8 µM (inactive), the GI50 (K562) was 33.1 µM (inactive) and the GI50 (XF498) was 18.7 µM (inactive). For the same compound, the GI50 (HOP-18) was 60.5 µM (inactive), the GI50 (UO-31) was 34.8 µM (inactive) and the GI50 (Malme-3M) was 50.1 µM (inactive). For the same compound, the GI50 (UACC-257) was 31.5 µM (inactive), the GI50 (SF-539) was 36.6 µM (inactive) and the GI50 (NCI-H522) was 29 µM (inactive). For the same compound, the GI50 (DMS-114) was 24.8 µM (inactive), the GI50 (SNB-78) was 27.4 µM (inactive) and the GI50 (RXF 393) was 36.5 µM (inactive). The GI50 (OVCAR-3) was 33.5 µM (inactive), the GI50 (SF-268) was 52.2 µM (inactive) and the GI50 (SK-MEL-28) was 66.5 µM (inactive). The GI50 (NCI-H226) was 26.7 µM (inactive), the GI50 (CCRF-CEM) was 41.7 µM (inactive) and the GI50 (HOP-92) was 23.2 µM (inactive). The GI50 (OVCAR-5) was 54.1 µM (inactive), the GI50 (LXFL 529) was 35.3 µM (inactive) and the GI50 (SN12C) was 46.8 µM (inactive). For the same compound, the GI50 (COLO 205) was 67.8 µM (inactive), the GI50 (SNB-75) was 19.4 µM (inactive) and the GI50 (SW-620) was 44.5 µM (inactive). For the same compound, the GI50 (SK-OV-3) was 42.7 µM (inactive), the GI50 (LOX IMVI) was 33 µM (inactive) and the GI50 (DLD-1) was 41.7 µM (inactive). For the same compound, the GI50 (U-251) was 36.9 µM (inactive) and the GI50 (NCI-H460) was 35.8 µM (inactive).
In the case of CC1=C[C@@H]2Cc3occc3C(C)(C)[C@@H]2CC1, the GI50 (A549) is reported as 22.9 µM (inactive), the GI50 (SF-295) is reported as 19.5 µM (inactive) and the GI50 (OVCAR-8) is reported as 19.5 µM (inactive). For the same compound, the GI50 (UACC-62) was > 10 µM (inactive), the GI50 (TK-10) was 22.4 µM (inactive) and the GI50 (OVCAR-4) was 29.4 µM (inactive). For the same compound, the GI50 (A498) was 21.8 µM (inactive), the GI50 (EKVX) was 18 µM (inactive) and the GI50 (NCI-H23) was 24.5 µM (inactive). For the same compound, the GI50 (KM-20L2) was 18.5 µM (inactive), the GI50 (IGROV-1) was > 10 µM (inactive) and the GI50 (M19-MEL) was 15.6 µM (inactive). The GI50 (SK-MEL-2) was 10.9 µM (inactive), the GI50 (ACHN) was 16 µM (inactive) and the GI50 (HCC 2998) was 21.4 µM (inactive). For the same compound, the GI50 (KM12) was 16.9 µM (inactive), the GI50 (CAKI-1) was 23.4 µM (inactive) and the GI50 (MOLT-4) was 19.6 µM (inactive). For the same compound, the GI50 (M14) was 22.3 µM (inactive), the GI50 (HT-29) was 16.6 µM (inactive) and the GI50 (DMS-273) was 13.6 µM (inactive). The GI50 (SK-MEL-5) was 17.9 µM (inactive), the GI50 (RXF 631) was 20.4 µM (inactive) and the GI50 (SR) was 14.5 µM (inactive). The GI50 (HCT-116) was 19.4 µM (inactive), the GI50 (786-0) was 19.4 µM (inactive) and the GI50 (HOP-62) was 32.4 µM (inactive). The GI50 (SNB-19) was > 10 µM (inactive), the GI50 (HL-60) was 19.3 µM (inactive) and the GI50 (K562) was 21.1 µM (inactive). The GI50 (XF498) was 15.3 µM (inactive), the GI50 (HOP-18) was 23.6 µM (inactive) and the GI50 (UO-31) was 19.2 µM (inactive). The GI50 (Malme-3M) was 20 µM (inactive), the GI50 (UACC-257) was 22.5 µM (inactive) and the GI50 (SF-539) was 23.8 µM (inactive). The GI50 (NCI-H522) was 14.7 µM (inactive), the GI50 (DMS-114) was 20.2 µM (inactive) and the GI50 (SNB-78) was 27.7 µM (inactive). For the same compound, the GI50 (RXF 393) was 18.7 µM (inactive), the GI50 (OVCAR-3) was 17.7 µM (inactive) and the GI50 (SF-268) was 20.2 µM (inactive). The GI50 (SK-MEL-28) was 24 µM (inactive), the GI50 (NCI-H226) was 17.9 µM (inactive) and the GI50 (CCRF-CEM) was 18.3 µM (inactive). For the same compound, the GI50 (HOP-92) was 19.5 µM (inactive), the GI50 (OVCAR-5) was 22.8 µM (inactive) and the GI50 (LXFL 529) was 37.5 µM (inactive). For the same compound, the GI50 (SN12C) was 15.8 µM (inactive), the GI50 (COLO 205) was 18.9 µM (inactive) and the GI50 (SNB-75) was 18.1 µM (inactive). The GI50 (SW-620) was 17.1 µM (inactive), the GI50 (SK-OV-3) was 38.1 µM (inactive) and the GI50 (LOX IMVI) was 19.2 µM (inactive). For the same compound, the GI50 (DLD-1) was 17.7 µM (inactive) and the GI50 (U-251) was 18.5 µM (inactive).
For OC1C2C=CCC1CCC2 (stereo unspecified), the GI50 (A549) was > 100 µM (inactive), the GI50 (SF-295) was > 100 µM (inactive) and the GI50 (OVCAR-8) was > 100 µM (inactive). For the same compound, the GI50 (UACC-62) was > 100 µM (inactive), the GI50 (TK-10) was > 100 µM (inactive) and the GI50 (OVCAR-4) was > 100 µM (inactive). For the same compound, the GI50 (A498) was > 100 µM (inactive), the GI50 (EKVX) was > 100 µM (inactive) and the GI50 (NCI-H23) was > 100 µM (inactive). For the same compound, the GI50 (KM-20L2) was > 100 µM (inactive), the GI50 (RPMI-8226) was > 100 µM (inactive) and the GI50 (IGROV-1) was > 100 µM (inactive). For the same compound, the GI50 (M19-MEL) was > 100 µM (inactive), the GI50 (SK-MEL-2) was > 100 µM (inactive) and the GI50 (ACHN) was > 100 µM (inactive). The GI50 (KM12) was > 100 µM (inactive), the GI50 (CAKI-1) was > 100 µM (inactive) and the GI50 (MOLT-4) was > 100 µM (inactive). The GI50 (M14) was > 100 µM (inactive), the GI50 (HT-29) was > 100 µM (inactive) and the GI50 (DMS-273) was > 100 µM (inactive). The GI50 (SK-MEL-5) was > 100 µM (inactive), the GI50 (RXF 631) was > 100 µM (inactive) and the GI50 (SR) was > 100 µM (inactive). The GI50 (HCT-116) was > 100 µM (inactive), the GI50 (786-0) was > 100 µM (inactive) and the GI50 (HOP-62) was > 100 µM (inactive). For the same compound, the GI50 (SNB-19) was > 100 µM (inactive), the GI50 (HL-60) was > 100 µM (inactive) and the GI50 (K562) was > 100 µM (inactive). For the same compound, the GI50 (XF498) was > 100 µM (inactive), the GI50 (HOP-18) was > 100 µM (inactive) and the GI50 (UO-31) was > 100 µM (inactive). The GI50 (Malme-3M) was > 100 µM (inactive), the GI50 (UACC-257) was > 100 µM (inactive) and the GI50 (SF-539) was > 100 µM (inactive). The GI50 (NCI-H522) was > 100 µM (inactive), the GI50 (DMS-114) was > 100 µM (inactive) and the GI50 (SNB-78) was > 100 µM (inactive). For the same compound, the GI50 (RXF 393) was > 100 µM (inactive), the GI50 (OVCAR-3) was > 100 µM (inactive) and the GI50 (SF-268) was > 100 µM (inactive). For the same compound, the GI50 (SK-MEL-28) was > 100 µM (inactive), the GI50 (NCI-H226) was > 100 µM (inactive) and the GI50 (CCRF-CEM) was > 100 µM (inactive). The GI50 (HOP-92) was > 100 µM (inactive), the GI50 (OVCAR-5) was > 100 µM (inactive) and the GI50 (SN12C) was > 100 µM (inactive). For the same compound, the GI50 (COLO 205) was > 100 µM (inactive), the GI50 (SNB-75) was > 100 µM (inactive) and the GI50 (SW-620) was > 100 µM (inactive). For the same compound, the GI50 (SK-OV-3) was > 100 µM (inactive), the GI50 (LOX IMVI) was > 100 µM (inactive) and the GI50 (DLD-1) was > 100 µM (inactive). The GI50 (U-251) was > 100 µM (inactive) and the GI50 (NCI-H460) was > 100 µM (inactive).

Reference: ChEMBL document CHEMBL1201862, “PubChem BioAssay data set” (2004)
